Data published in PubChem BioAssay AID1963983 (Molecular Pharmacology Branch, DTP, NCI, 2024).
pIC50: −log10 of the molar value.

Test system: 186277-243-T-J2-PDC multi-cell spheroid viability
Assay: Anticancer human tumor 186277-243-T-J2-PDC patient-derived colon adenocarcinoma cell line growth inhibition [PI3K]
Settings: for pIC50: curve of first compound; for viability, T/C: stronger effect = lower value
Outline: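 Tumor cells grown as multi-cell spheroids with HUVEC endothelial cells and MSC fibroblast-like stroma were treated with targeted agents combined with inavolisib, alpelisib, duvelisib or copanlisib. Doses fell in half-log steps from near clinical Cmax, else from 10 microM. Viability was measured.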

[1] = second compound 0.00316 µM, first compound 0.0316 µM
[2] = second compound 0.00316 µM, first compound 0.1 µM
[3] = second compound 0.00316 µM, first compound 0.316 µM
[4] = second compound 0.00316 µM, first compound 1 µM
[5] = second compound 0.00316 µM, first compound 3.16 µM
[6] = second compound 0.00316 µM, first compound 10 µM
[7] = second compound 0.01 µM, first compound 0.0316 µM
[8] = second compound 0.01 µM, first compound 0.1 µM
[9] = second compound 0.01 µM, first compound 0.316 µM
[10] = second compound 0.01 µM, first compound 1 µM
[11] = second compound 0.01 µM, first compound 3.16 µM
[12] = second compound 0.01 µM, first compound 10 µM
[13] = second compound 0.0316 µM, first compound 0.0316 µM
[14] = second compound 0.0316 µM, first compound 0.1 µM
[15] = second compound 0.0316 µM, first compound 0.316 µM
[16] = second compound 0.0316 µM, first compound 1 µM
[17] = second compound 0.0316 µM, first compound 3.16 µM
[18] = second compound 0.0316 µM, first compound 10 µM
[19] = second compound 0.1 µM, first compound 0.0316 µM
[20] = second compound 0.1 µM, first compound 0.1 µM
[21] = second compound 0.1 µM, first compound 0.316 µM
[22] = second compound 0.1 µM, first compound 1 µM
[23] = second compound 0.1 µM, first compound 3.16 µM
[24] = second compound 0.1 µM, first compound 10 µM
[25] = second compound 0.316 µM, first compound 0.0316 µM
[26] = second compound 0.316 µM, first compound 0.1 µM
[27] = second compound 0.316 µM, first compound 0.316 µM
[28] = second compound 0.316 µM, first compound 1 µM
[29] = second compound 0.316 µM, first compound 3.16 µM
[30] = second compound 0.316 µM, first compound 10 µM
[31] = second compound 1 µM, first compound 0.0316 µM
[32] = second compound 1 µM, first compound 0.1 µM
[33] = second compound 1 µM, first compound 0.316 µM
[34] = second compound 1 µM, first compound 1 µM
[35] = second compound 1 µM, first compound 3.16 µM
[36] = second compound 1 µM, first compound 10 µM
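Also: spheroids exposed to compounds for seven days before viability reading.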
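For viability, T/C in this document: 100% = DMSO vehicle control viability.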

CC1(C)CCC(CN2CCN(c3ccc(C(=O)NS(=O)(=O)c4ccc(NCC5CCOCC5)c([N+](=O)[O-])c4)c(Oc4cnc5[nH]ccc5c4)c3)CC2)=C(c2ccc(Cl)cc2)C1 + CC(Nc1ccc2c(c1)OCCn1cc(N3C(=O)OCC3C(F)F)nc1-2)C(N)=O
pIC50 (second compound 0.00316 µM): 5.34
pIC50 (second compound 0.01 µM): 5.34
pIC50 (second compound 0.0316 µM): 5.36
pIC50 (second compound 0.1 µM): 5.44
pIC50 (second compound 0.316 µM): 5.47
pIC50 (second compound 1 µM): > 7.50
viability, T/C [1]: 97.8%
viability, T/C [2]: 99.7%
viability, T/C [3]: 95.3%
viability, T/C [4]: 91.9%
viability, T/C [5]: 71.2%
viability, T/C [6]: 5.92%
viability, T/C [7]: 107%
viability, T/C [8]: 94.3%
viability, T/C [9]: 95.1%
viability, T/C [10]: 95.3%
viability, T/C [11]: 71.1%
viability, T/C [12]: 3.55%
viability, T/C [13]: 106%
viability, T/C [14]: 108%
viability, T/C [15]: 99.4%
viability, T/C [16]: 89.4%
viability, T/C [17]: 71%
viability, T/C [18]: 2.8%
viability, T/C [19]: 98.6%
viability, T/C [20]: 99.9%
viability, T/C [21]: 87.5%
viability, T/C [22]: 78.3%
viability, T/C [23]: 60.3%
viability, T/C [24]: 2.37%
viability, T/C [25]: 86.1%
viability, T/C [26]: 83.3%
viability, T/C [27]: 67.5%
viability, T/C [28]: 71.1%
viability, T/C [29]: 56.2%
viability, T/C [30]: 0.63%
viability, T/C [31]: 47.5%
viability, T/C [32]: 44.8%
viability, T/C [33]: 46.3%
viability, T/C [34]: 46.1%
viability, T/C [35]: 34.4%
viability, T/C [36]: 0.99%

C#Cc1c(F)ccc2cc(O)cc(-c3ncc4c(N5CC6CCC(C5)N6)nc(OCC56CCCN5CC(F)C6)nc4c3F)c12 (stereo unspecified) + COc1c(OCCCN2CCOCC2)ccc2c3n(c(=NC(=O)c4cnc(N)nc4)nc12)CCN3
pIC50 (second compound 0.00316 µM): 7.19
pIC50 (second compound 0.01 µM): > 7.50
pIC50 (second compound 0.0316 µM): > 7.50
pIC50 (second compound 0.1 µM): > 7.50
pIC50 (second compound 0.316 µM): > 7.50
pIC50 (second compound 1 µM): > 7.50
viability, T/C [1]: 78.4%
viability, T/C [2]: 32.4%
viability, T/C [3]: 17.5%
viability, T/C [4]: 8.98%
viability, T/C [5]: 9.36%
viability, T/C [6]: 6.51%
viability, T/C [7]: 47.8%
viability, T/C [8]: 20.9%
viability, T/C [9]: 13.7%
viability, T/C [10]: 10.1%
viability, T/C [11]: 8.35%
viability, T/C [12]: 5.59%
viability, T/C [13]: 16.9%
viability, T/C [14]: 7.55%
viability, T/C [15]: 10.6%
viability, T/C [16]: 3.62%
viability, T/C [17]: 3.8%
viability, T/C [18]: 4.03%
viability, T/C [19]: 5.72%
viability, T/C [20]: 4.46%
viability, T/C [21]: 3%
viability, T/C [22]: 3.2%
viability, T/C [23]: 1.5%
viability, T/C [24]: 0.18%
viability, T/C [25]: 3.44%
viability, T/C [26]: 0.58%
viability, T/C [27]: 0.7%
viability, T/C [28]: 0.32%
viability, T/C [29]: 0.85%
viability, T/C [30]: 0.1%
viability, T/C [31]: 0.56%
viability, T/C [32]: 0.38%
viability, T/C [33]: 0.53%
viability, T/C [34]: 0.17%
viability, T/C [35]: 0.22%
viability, T/C [36]: 0.16%

CC(=O)c1c(C)c2cnc(Nc3ccc(N4CCNCC4)cn3)nc2n(C2CCCC2)c1=O + CC(Nc1ccc2c(c1)OCCn1cc(N3C(=O)OCC3C(F)F)nc1-2)C(N)=O
pIC50 (second compound 0.00316 µM): < 7.00
pIC50 (second compound 0.01 µM): < 7.00
pIC50 (second compound 0.0316 µM): < 7.00
pIC50 (second compound 0.1 µM): < 7.00
pIC50 (second compound 0.316 µM): 7.02
pIC50 (second compound 1 µM): > 9.50
viability, T/C (second compound 0.00316 µM, first compound 0.000316 µM): 114%
viability, T/C (second compound 0.00316 µM, first compound 0.001 µM): 89.2%
viability, T/C (second compound 0.00316 µM, first compound 0.00316 µM): 82.3%
viability, T/C (second compound 0.00316 µM, first compound 0.01 µM): 98.5%
viability, T/C [1]: 118%
viability, T/C [2]: 137%
viability, T/C (second compound 0.01 µM, first compound 0.000316 µM): 94%
viability, T/C (second compound 0.01 µM, first compound 0.001 µM): 94.8%
viability, T/C (second compound 0.01 µM, first compound 0.00316 µM): 89.8%
viability, T/C (second compound 0.01 µM, first compound 0.01 µM): 101%
viability, T/C [7]: 119%
viability, T/C [8]: 132%
viability, T/C (second compound 0.0316 µM, first compound 0.000316 µM): 119%
viability, T/C (second compound 0.0316 µM, first compound 0.001 µM): 116%
viability, T/C (second compound 0.0316 µM, first compound 0.00316 µM): 91.7%
viability, T/C (second compound 0.0316 µM, first compound 0.01 µM): 96.3%
viability, T/C [13]: 134%
viability, T/C [14]: 122%
viability, T/C (second compound 0.1 µM, first compound 0.000316 µM): 104%
viability, T/C (second compound 0.1 µM, first compound 0.001 µM): 89.3%
viability, T/C (second compound 0.1 µM, first compound 0.00316 µM): 102%
viability, T/C (second compound 0.1 µM, first compound 0.01 µM): 98.6%
viability, T/C [19]: 101%
viability, T/C [20]: 89.4%
viability, T/C (second compound 0.316 µM, first compound 0.000316 µM): 85.3%
viability, T/C (second compound 0.316 µM, first compound 0.001 µM): 73.6%
viability, T/C (second compound 0.316 µM, first compound 0.00316 µM): 73.2%
viability, T/C (second compound 0.316 µM, first compound 0.01 µM): 76.1%
viability, T/C [25]: 63.5%
viability, T/C [26]: 49.3%
viability, T/C (second compound 1 µM, first compound 0.000316 µM): 49.7%
viability, T/C (second compound 1 µM, first compound 0.001 µM): 43.5%
viability, T/C (second compound 1 µM, first compound 0.00316 µM): 47.5%
viability, T/C (second compound 1 µM, first compound 0.01 µM): 41.2%
viability, T/C [31]: 35.7%
viability, T/C [32]: 29.6%
